According to patent US20120178815A1, “Compositions of (-)-E-10-OH-NT and Methods for Their Synthesis and Use” (Adolor Corporation, priority 2007, published 2012):
Read-outs that look alike come from different tables or passages of the source.

How the values were obtained:
[1] = target: T1, human muscarinic receptor M5 (Homo sapiens, UniProt P08912); assay: Muscarinic M5 receptor binding, [3H]4-DAMP; details: read-out: Affinity for Muscarinic Receptors, M5, Ki
T1 construct: expressed in transfected cells; host or cells: CHO cells (membranes)
T1 sequence (P08912 1-532): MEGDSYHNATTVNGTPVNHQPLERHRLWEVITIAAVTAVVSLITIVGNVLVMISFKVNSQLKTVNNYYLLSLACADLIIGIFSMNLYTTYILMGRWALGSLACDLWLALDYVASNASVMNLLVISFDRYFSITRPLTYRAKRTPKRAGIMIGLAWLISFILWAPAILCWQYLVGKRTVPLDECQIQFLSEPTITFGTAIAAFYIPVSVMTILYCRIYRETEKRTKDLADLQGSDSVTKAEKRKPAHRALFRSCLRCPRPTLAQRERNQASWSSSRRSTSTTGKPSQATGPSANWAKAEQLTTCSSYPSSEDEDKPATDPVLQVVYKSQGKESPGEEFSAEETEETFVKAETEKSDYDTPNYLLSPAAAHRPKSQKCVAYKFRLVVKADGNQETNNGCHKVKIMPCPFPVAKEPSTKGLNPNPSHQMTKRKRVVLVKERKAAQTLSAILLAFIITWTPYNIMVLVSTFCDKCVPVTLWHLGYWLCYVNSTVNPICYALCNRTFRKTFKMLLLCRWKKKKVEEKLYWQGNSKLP
Method: Protocol. The affinities of AT, NT (+)-E-10-OH-NT and (−)-E-10-OH-NT for muscarinic receptors M1, M2, M3, M4 and M5 were determined with membranes prepared from CHO cells heterologously expressing the cloned human muscarinic receptors M1, M2, M3, M4 and M5. For the assays, membranes and radiolabelled ligand were incubated with various concentrations of test compounds for 1 hour at 22° C. Bound radioactivity was determined by scintillation spectroscopy. Non-specific binding was defined as the amount of bound radioligand in the presence of 1.0 μM atropine. Radioligand for the M1 receptor was [^3H]pirenzepine (2 nM). Radioligand for the M2 receptor was [^3H]AF-DX384 (2 nM). Radioligand for the M3, M4, and M5 receptors was [^3H]4-DAMP.

[2] = target: T2, DA uptake, rat striatum synaptosomes (Rattus norvegicus, UniProt P23977); assay: Inhibition of [3H]-DA uptake into synaptosomes; format: biochemical; details: for inhibition at 10 µM: read-out: Monoamine Uptake Inhibition, DA, % inhib. at 10 μM; for IC50: read-out: Monoamine Uptake Inhibition, DA, IC50
T2 construct: into rat striatum synaptosomes; from tissue; host or cells: rat striatum synaptosomes
T2 sequence (P23977 whole entry): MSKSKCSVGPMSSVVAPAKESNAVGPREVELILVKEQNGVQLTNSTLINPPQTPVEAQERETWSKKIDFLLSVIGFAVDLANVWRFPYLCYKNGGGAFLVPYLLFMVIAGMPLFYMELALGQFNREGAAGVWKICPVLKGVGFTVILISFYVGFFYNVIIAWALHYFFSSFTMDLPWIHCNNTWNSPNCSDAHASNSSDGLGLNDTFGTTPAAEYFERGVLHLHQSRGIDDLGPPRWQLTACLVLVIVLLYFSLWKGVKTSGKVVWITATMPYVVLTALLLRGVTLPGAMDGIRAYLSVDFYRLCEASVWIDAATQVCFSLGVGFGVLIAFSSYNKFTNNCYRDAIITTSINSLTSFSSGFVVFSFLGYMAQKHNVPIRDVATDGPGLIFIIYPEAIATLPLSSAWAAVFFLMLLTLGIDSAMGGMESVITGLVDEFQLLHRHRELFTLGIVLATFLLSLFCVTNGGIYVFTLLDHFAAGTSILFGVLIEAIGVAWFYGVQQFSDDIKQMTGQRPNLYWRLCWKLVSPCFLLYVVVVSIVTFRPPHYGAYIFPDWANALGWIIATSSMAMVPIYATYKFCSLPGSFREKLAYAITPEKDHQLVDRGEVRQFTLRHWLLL

[3] = target: T3, human serotonin transporter (hSERT) (Homo sapiens, UniProt P31645); assay: 5HT transporter competitive binding assay, [3H]imipramine
T3 construct: expressed in transfected cells; host or cells: CHO cells (membranes)
T3 sequence (P31645 whole entry): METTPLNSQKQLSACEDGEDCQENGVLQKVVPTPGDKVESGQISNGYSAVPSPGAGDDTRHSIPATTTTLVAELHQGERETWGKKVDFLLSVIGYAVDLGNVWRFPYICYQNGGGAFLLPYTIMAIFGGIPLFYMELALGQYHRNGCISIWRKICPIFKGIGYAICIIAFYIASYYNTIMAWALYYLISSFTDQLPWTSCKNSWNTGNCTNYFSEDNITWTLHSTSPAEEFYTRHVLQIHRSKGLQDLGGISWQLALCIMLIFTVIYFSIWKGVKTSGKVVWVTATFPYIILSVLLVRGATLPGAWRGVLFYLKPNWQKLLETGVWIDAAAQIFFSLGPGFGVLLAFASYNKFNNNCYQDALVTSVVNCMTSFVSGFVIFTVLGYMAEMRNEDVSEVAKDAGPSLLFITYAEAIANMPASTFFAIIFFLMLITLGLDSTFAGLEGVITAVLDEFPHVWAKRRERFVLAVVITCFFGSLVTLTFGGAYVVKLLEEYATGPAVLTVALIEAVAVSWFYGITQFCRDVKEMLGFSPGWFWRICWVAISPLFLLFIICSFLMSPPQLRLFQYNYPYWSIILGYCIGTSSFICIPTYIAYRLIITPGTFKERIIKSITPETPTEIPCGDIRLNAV
Method: (§1) Bound radioactivity was determined by scintillation spectroscopy. […] The Ki values of the various test compounds were determined using standard methods.
as §1

[4] = target: T4, human muscarinic receptor M1 (Homo sapiens, UniProt P11229); assay: Muscarinic M1 receptor binding, [3H]pirenzepine; details: read-out: Affinity for Muscarinic Receptors, M1, Ki
T4 construct: expressed in transfected cells; host or cells: CHO cells (membranes)
T4 sequence (P11229 whole entry): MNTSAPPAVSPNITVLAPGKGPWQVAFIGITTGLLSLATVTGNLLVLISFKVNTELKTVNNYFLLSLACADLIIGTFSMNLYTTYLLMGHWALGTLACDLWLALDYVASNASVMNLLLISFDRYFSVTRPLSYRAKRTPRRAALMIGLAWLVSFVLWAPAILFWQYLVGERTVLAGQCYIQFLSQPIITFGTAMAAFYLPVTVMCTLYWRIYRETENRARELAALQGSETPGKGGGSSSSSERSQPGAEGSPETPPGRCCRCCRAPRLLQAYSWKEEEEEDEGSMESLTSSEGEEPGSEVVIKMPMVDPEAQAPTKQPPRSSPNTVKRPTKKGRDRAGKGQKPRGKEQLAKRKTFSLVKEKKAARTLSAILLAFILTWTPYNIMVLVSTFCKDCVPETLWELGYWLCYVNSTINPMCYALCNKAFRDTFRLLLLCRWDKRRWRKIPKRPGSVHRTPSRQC
Method: Protocol. […] Bound radioactivity was determined by scintillation spectroscopy. Non-specific binding was defined as the amount of bound radioligand in the presence of 1.0 μM atropine. Radioligand for the M1 receptor was [^3H]pirenzepine (2 nM). Radioligand for the M2 receptor was [^3H]AF-DX384 (2 nM). Radioligand for the M3, M4, and M5 receptors was [^3H]4-DAMP.

[5] = tested on: FCA-induced mechanical hyperalgesia in rats; assay: Rat FCA-induced mechanical hyperalgesia assay (paw pressure threshold); format: in vivo; details: for antihyperalgesia (% AH): 1 hour after treatment; for antihyperalgesia (% AH) / antihyperalgesic activity (% AH): 24 h FCA-treated rats; for antihyperalgesic activity (% AH): 60 mg/kg IP; for antihyperalgesic activity (% AH) / ED50 for reversal of mechanical hyperalgesia: 1 h posttreatment; for ED50 for reversal of mechanical hyperalgesia: response at 60 mg/kg IP taken as maximal response (100%)
Method: Protocol. […] Dosage amounts are based on the amount of free base. For the assay, the methods of DeHaven-Hudkins et al., 1999 were used to determine mechanical hyperalgesia in rats 24 hours after intraplantar administration of 150 μL Freund's Complete Adjuvant (FCA). To determine paw pressure thresholds, the rats were lightly restrained in a gauze wrap and pressure was applied to the dorsal surface of the inflamed and uninflamed paw with a conical piston using a pressure analgesia apparatus (Stoelting Instruments, Wood Dale, Ill.). The paw pressure threshold was defined as the amount of force (in grams) required to elicit an escape response using a cutoff value of 250 grams.
Paw pressure thresholds were measured 1 h posttreatment.
Protocol. […] For comparison, sterile water vehicle was tested as a negative control. The methods of DeHaven-Hudkins et al., 1999 were used to determine mechanical hyperalgesia in rats 24 hours after intraplantar administration of 150 μL Freund's Complete Adjuvant (FCA). To determine paw pressure thresholds, the rats were lightly restrained in a gauze wrap and pressure was applied to the dorsal surface of the inflamed and uninflamed paw with a conical piston using a pressure analgesia apparatus (Stoelting Instruments, Wood Dale, Ill.). The paw pressure threshold was defined as the amount of force (in grams) required to elicit an escape response using a cutoff value of 250 grams.
Paw pressure thresholds were determined 1, 2, or 4 hours after administration using the methods disclosed in Examples 5 and 18.
Accordingly, rats were treated with sterile water vehicle, 30, or 60 mg/kg IP twenty-four hours after administration of FCA.

CYP2D6 = target: T5, CYP2D6 (Homo sapiens, UniProt P10635); assay: CYP2D6 inhibition, MAMC substrate; format: in vitro ADME; details: average of six replicate experiments; for inhibition at 10 µM: human, microsomes containing human recombinant CYP2D6, probe 7-methoxy-4-(aminomethyl)-coumarin (MAMC), 10 μM test compound, read-out: Inhibition of CYP2D6, % inhib. at 10 μM; for IC50: 95% confidence limits in parentheses
T5 construct: purchased BD Bioscience
T5 sequence (P10635 whole entry): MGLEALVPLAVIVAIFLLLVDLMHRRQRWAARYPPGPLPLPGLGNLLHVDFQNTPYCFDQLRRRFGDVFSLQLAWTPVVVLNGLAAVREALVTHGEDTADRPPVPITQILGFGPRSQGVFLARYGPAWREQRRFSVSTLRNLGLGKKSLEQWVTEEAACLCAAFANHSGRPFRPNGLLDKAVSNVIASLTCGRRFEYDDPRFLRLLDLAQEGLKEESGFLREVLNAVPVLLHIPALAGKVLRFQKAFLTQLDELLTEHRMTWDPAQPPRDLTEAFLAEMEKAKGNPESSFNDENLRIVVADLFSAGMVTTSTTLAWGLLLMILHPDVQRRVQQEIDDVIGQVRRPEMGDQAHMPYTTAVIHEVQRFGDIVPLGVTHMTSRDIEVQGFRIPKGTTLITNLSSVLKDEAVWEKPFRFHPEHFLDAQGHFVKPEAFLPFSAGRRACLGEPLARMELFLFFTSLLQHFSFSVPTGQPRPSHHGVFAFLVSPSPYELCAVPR
Method: Protocol. The inhibitory activities of AT and NT, (+)-E-10-OH-NT and (−)-E-10-OH-NT on cytochrome P450 function were tested using the methods of Chauret et al., 2001, using 7-methoxy-4-(aminomethyl)-coumarin (MAMC) (Venhorst et al., 2000) as substrate. The source of the enzyme was microsomes containing human recombinant CYP2D6 obtained from BD Bioscience. Conversion of MAMC to 7-hydroxy-4-(aminomethyl)coumarin was measured using a PerkinElmer Fusion with a 390 nm excitation filter and a 460 nm emission filter.

[6] = target: human NE transporter (hNET) (Homo sapiens, UniProt P23975); assay: NE transporter competitive binding assay, [3H]nisoxetine
human NE transporter (hNET), sequence (P23975 whole entry): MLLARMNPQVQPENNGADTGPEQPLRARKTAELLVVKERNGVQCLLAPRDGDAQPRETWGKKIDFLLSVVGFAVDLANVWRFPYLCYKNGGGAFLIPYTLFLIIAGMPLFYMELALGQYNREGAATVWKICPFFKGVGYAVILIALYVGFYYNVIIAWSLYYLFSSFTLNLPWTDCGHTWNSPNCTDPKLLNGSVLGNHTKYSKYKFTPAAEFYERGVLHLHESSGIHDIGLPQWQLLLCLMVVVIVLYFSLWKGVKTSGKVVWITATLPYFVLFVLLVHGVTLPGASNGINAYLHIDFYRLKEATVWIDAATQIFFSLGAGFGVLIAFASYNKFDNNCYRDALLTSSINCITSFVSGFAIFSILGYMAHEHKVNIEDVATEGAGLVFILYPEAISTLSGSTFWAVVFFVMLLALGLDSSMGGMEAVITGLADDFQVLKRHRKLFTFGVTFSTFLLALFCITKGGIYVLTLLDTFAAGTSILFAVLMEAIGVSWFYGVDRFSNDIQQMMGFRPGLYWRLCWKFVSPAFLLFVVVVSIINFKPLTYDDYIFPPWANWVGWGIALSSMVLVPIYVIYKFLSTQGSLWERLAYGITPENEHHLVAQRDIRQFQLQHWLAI
Method: (§2) Protocol. […] Bound radioactivity was determined by scintillation spectroscopy. Non-specific binding was defined as the amount of binding that occurred in the presence of 1.0 μM desipramine. The Ki values of the various test compounds were determined using standard methods.
as §2

[7] = Example 4, read-out: Monoamine Transporter Affinity, 5HT, Ki
[8] = Example 4, read-out: Monoamine Transporter Affinity, NE, Ki

Compound | Ki [1] [nM] | inhibition at 10 µM [2] [%] | IC50 [2] [nM] | Ki [3, 7] [nM] | Ki ([3]; Example 14, read-out: SERT Ki) [nM] | Ki [4] [nM] | antihyperalgesia (% AH) ([5]; 30 mg/kg IP) | antihyperalgesic activity (Example 5) ([5]; 30 mg/kg, i.p.) | antihyperalgesic activity (% AH) [5] [% AH] | antihyperalgesic activity, orally-administered ([5]; oral administration) | ED50 for reversal of mechanical hyperalgesia [5] [mg/kg IP] | inhibition at 10 µM (CYP2D6) [%] | Ki [6, 8] [nM] | Ki ([6]; Example 14, read-out: NET Ki) [nM] | IC50 (CYP2D6) [nM] | antihyperalgesic activity, time course ([5]; 30 mg/kg IP, 1, 2, or 4 hours after administration)
CNCC/C=C1\c2ccccc2C[C@@H](O)c2ccccc21 (stereo in doubt) [(−)-E-10-OH-NT] | 150 | 16 | > 1000 | 660 | 617 | 410 | 55±7 % AH | robust antihyperalgesic activity | 270±53 | significant activity | 36 | 37 | 44 | 81 | – | –
CN(C)CCC=C1c2ccccc2CCc2ccccc21 [AT, amitriptyline, reference compound] | 3.5 | – | 2400 | – | – | – | – | – | 259±39 | – | 38 | – | – | – | 820 | –
CNCCC=C1c2ccccc2CCc2ccccc21 [NT, nortriptyline, reference compound] | 15 | – | 1700 | – | – | – | – | – | – | – | – | – | – | – | 700 | –
CNCC/C=C1\c2ccccc2C[C@H](O)c2ccccc21 (stereo in doubt) [(+)-E-10-OH-NT] | 280 | 19 | > 1000 | 400 | 361 | 710 | not antihyperalgesic | – | 40±13 | – | – | 40 | 52 | 95 | – | not antihyperalgesic at any time point tested
